The data set concerns eyes of rabbits. The following applies: rabbit, intravitreal. The text has this: Fifty-two (52) healthy rabbits of the New Zealand Cross Variety (26 male, 26 female) weighing 1.5 kg to 2.5 kg, were individually marked for identification and were housed individually in suspended cages. The animals received a commercially available pelleted rabbit feed on a daily basis, with tap water available ad libitum.
The animals were divided into thirteen groups of 4 animals each (2 male, 2 female). Two animals in each group (1 male, 1 female) were selected for pretreatment fundus photography and fluorescein angiography.
The fundus photography was performed by restraining the animals and visualizing the optic nerve, retinal arcades with fundus with a KOWA® RC-3 Fundus Camera loaded with Kodak Gold 200 ASA film.
The fluorescein angiography involved a 1.5 ml injection of 2% sterile fluorescein solution via the marginal ear vein. Approximately 30 seconds post-injection the fluorescein was visualized upon localization of the optic nerve, retinal vessels and fundus.
The following day, each animal was anesthetized by intravenous administration of a combination of 34 mg/kg of ketamine hydrochloride and 5 mg/kg xylazine. The eyelids were retracted using a lid speculum, and the eyes were disinfected with an iodine-providone wash.
The experimental treatments administered to each animal group were as follows:
The day following the injections (Day 1), the 26 animals which were subjected to the fundus photography and fluorescein angiography were observed using the same methods as for the pre-dose examination.
The eyes were then surgically removed and placed in a fixture solution of 2.5% glutaraldehyde with 0.1 M phosphate buffered saline at pH 7.37.
Alternatively, one randomly selected rabbit was euthanized by pentobarbital injection but then fixed by intracardiac injection of the glutaraldehyde solution into the left ventricle to determine the effect of the fixation procedure on the histology findings within the enucleated eyes.
On Day 7, the 13 female rabbits that had been previously photographed and angiography performed were subjected to the same observations following the methods previously described.
The remaining 26 animals were euthanized as described above 7 days after dosing. The eyes were fixed in the same manner as those which had been fixed on day 2. Also, one randomly selected rabbit was subjected to the same intracardiac glutaraldehyde fixation procedure described hereabove for the previously randomly selected animal.
The eyes of the animals treated in this example were examined grossly and microscopically for evidence of treatment-related toxicities.

Where two headings read alike, the source gives them in different places.

Consider thimerosal [BSS+thimerosal], for which the “evidence of treatment-related toxicity in the eyes (gross and microscopic examination)” value by setting is: (0.0075 mg thimerosal in BSS, day 2 post-dose) “free of toxicity”; (0.0075 mg thimerosal in BSS, day 7 post-dose) “breakdown of the blood-retinal barrier”; (0.025 mg thimerosal in BSS, days 2 and 7 post-dose) “severe treatment-related toxic effects”. The “toxic effects observed on day 7 (FIG. 3)” value (0.0075 mg thimerosal in BSS, day 7) is “significant toxic effects”. In addition, under “at the dosages tested”, the “toxic effects in the eyes of rabbits (conclusion)” value is recorded as “do cause toxic effects”.

Source of the values: US20050069531A1, “Use of hyaluronidase in the manufacture of an ophthalmic preparation for liquefying vitreous humor in the treatment of eye disorders” (priority 1995, published 2005).
